Patent US12492173B2, “Herbicidal substituted N-tetrazolyl aryl carboxamides” (Bayer Aktiengesellschaft, priority 2019, dated 2025)

Experiments:
Type in all cases: in vivo
[1] = test system: Viola tricolor; test: Pre-emergence herbicidal action, VIOTR; conditions: dosage 320 g/ha; for herbicidal activity VIOTR: scored visually after 3 weeks vs untreated controls (100% = plants have died)
Summary of the method: (§1)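 Seeds sown in sandy loam in pots and covered with soil; compounds formulated as WP or EC were sprayed onto the soil surface as aqueous suspension/emulsion at 600 to 800 l/ha water with 0.2% wetting agent. Greenhouse growth; visual damage scored after 3 weeks versus untreated controls (100% = plants died, 0% = like control).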

[2] = test system: Cyperus esculentus; test: Post-emergence herbicidal action, CYPES; design: key: % herbicidal action vs untreated; 100 = plants died, 0 = like control
Summary of the method: (§2)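 After sowing into sandy loam, plants grew 2 to 3 weeks under greenhouse conditions until one leaf, then got a spray of compound as aqueous suspension or emulsion. Roughly three weeks on, activity was estimated visually against untreated pots.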

[3] = test system: Viola tricolor; test: Post-emergence herbicidal action, VIOTR; design: key: % herbicidal action vs untreated; 100 = plants died, 0 = like control
Summary of the method: as §2

[4] = test system: Pharbitis purpurea; test: Pre-emergence herbicidal action, PHBPU; conditions: dosage 320 g/ha, scored visually after 3 weeks vs untreated controls (100% = plants have died)
Summary of the method: as §1

[5] = test system: Lolium multiflorum; test: Pre-emergence herbicidal action, LOLMU; conditions: dosage 320 g/ha, scored visually after 3 weeks vs untreated controls (100% = plants have died)
From the text: 1. Pre-Emergence Herbicidal Action Against Harmful Plants Seeds of monocotyledonous and dicotyledonous weed plants and crop plants are laid out in sandy loam soil in wood-fiber pots and covered with soil. The compounds of the invention, formulated in the form of wettable powders (WP) or as emulsion concentrates (EC), are then applied to the surface of the covering soil in the form of an aqueous suspension or emulsion at a water application rate equating to 600 to 800 l/ha, with addition of 0.2% wetting agent. After the treatment, the pots are placed in a greenhouse and kept under good growth conditions for the trial plants. The damage to the test plants is scored visually after a test period of 3 weeks by comparison with untreated controls (herbicidal activity in percent (%): 100% activity=the plants have died, 0% activity=like control plants). […] The tables below illustrate, in an exemplary manner, the […] herbicidal action of the compounds according to the invention, the herbicidal activity being stated in percent. [table] In the experiments that follow, herbicidal action of numerous inventive compounds and the known compounds that are structurally closest from D1 (WO 2012/028579 A1) and D2 (WO 2018/202535 A1) were compared under the above-specified conditions by the pre-emergence and post-emergence method. The example numbers given in the tables relate to the compounds disclosed in the respective documents. In addition to the compounds disclosed in D1 and D2, the following compounds V-1 to V-14 that are encompassed by D1 or D2 but are not compounds specified therein were used in the comparative experiments: • V-1: 2-(methylsulfanyl)-3-(methylsulfinyl)-N-(1-methyl-1H-tetrazol-5-yl)-4-(trifluoromethyl)benzamide • V-2: 2-(methylsulfanyl)-3-(methylsulfonyl)-N-(1-methyl-1H-tetrazol-5-yl)-4-(trifluoromethyl)benzamide • V-3: 2,3-bis(ethylsulfanyl)-N-(1-methyl-1H-tetrazol-5-yl)-4-(trifluoromethyl)benzamide • V-4: 2-chloro-3-(ethylsulfanyl)-N-(1-methyl-1H-tetrazol-5-yl)-4-(trifluoromethyl)benzamide • V-5: 2-chloro-4-iodo-3-(methylsulfanyl)-N-(1-methyl-1H-tetrazol-5-yl)benzamide • V-6: 2-chloro-4-iodo-3-(methylsulfinyl)-N-(1-methyl-1H-tetrazol-5-yl)benzamide • V-7: 2-chloro-4-iodo-3-(methylsulfonyl)-N-(1-methyl-1H-tetrazol-5-yl)benzamide • V-8: 2-bromo-3-(methylsulfanyl)-N-(1-methyl-1H-tetrazol-5-yl)-4-(trifluoromethyl)benzamide • V-9: 2-bromo-3-(methylsulfinyl)-N-(1-methyl-1H-tetrazol-5-yl)-4-(trifluoromethyl)benzamide • V-10: 2-bromo-3-(methylsulfonyl)-N-(1-methyl-1H-tetrazol-5-yl)-4-(trifluoromethyl)benzamide • V-11: 2-bromo-3-(ethylsulfanyl)-N-(1-methyl-1H-tetrazol-5-yl)-4-(trifluoromethyl)benzamide • V-12: 2-bromo-3-(ethylsulfinyl)-N-(1-methyl-1H-tetrazol-5-yl)-4-(trifluoromethyl)benzamide • V-13: 2-bromo-3-(ethylsulfonyl)-N-(1-methyl-1-1H-tetrazol-5-yl)-4-(trifluoromethyl)benzamide • V-14: 2-cyclopropyl-3-(ethylsulfanyl)-N-(1-methyl-1H-tetrazol-5-yl)-4-(trifluoromethyl)benzamide Herbicidal Pre-Emergence Action: […]

Structure (SMILES)	herbicidal action VIOTR [1]	herbicidal action CYPES ([2]; Dosage 80 g/ha)	herbicidal action VIOTR ([3]; Dosage 80 g/ha)	herbicidal activity PHBPU [4]	herbicidal activity VIOTR [1]	herbicidal activity LOLMU [5]	herbicidal action CYPES ([2]; post-emergence, dosage 80 g/ha)	herbicidal action VIOTR ([3]; post-emergence, dosage 80 g/ha)
CCn1nnnc1NC(=O)c1ccc(S(C)(=O)=O)c(CS(C)(=O)=O)c1C [Example 2-39]	100%	80	100	–	–	–	–	–
CSCc1c(C(F)F)ccc(C(=O)Nc2nnnn2C)c1C [Example 1-107, 4-(difluoromethyl)-2-methyl-3-[(methylsulfanyl)methyl]-N-(1-methyl-1H-tetrazol-5-yl)benzamide]	–	–	100	90%	90%	–	–	–
Cn1nnnc1NC(=O)c1ccc(C(F)(F)F)c(CS(C)(=O)=O)c1F [Example 1-244]	–	–	100	90%	100%	–	–	–
Cc1c(C(=O)Nc2nnnn2C)ccc(C(F)F)c1CS(C)(=O)=O [Example 1-109]	–	80	100	80%	100%	–	–	–
CCCn1nnnc1NC(=O)c1ccc(C(F)(F)F)c(CSCC)c1Br [Example 3-383]	–	–	100	–	100%	80%	–	–
Cn1nnnc1NC(=O)c1ccc(C(F)(F)F)c(CS(C)(=O)=O)c1Br [Example 1-382, 2-bromo-3-[(methylsulfonyl)methyl]-N-(1-methyl-1H-tetrazol-5-yl)-4-(trifluoromethyl)benzamide]	–	–	100	–	100%	–	–	–
CCn1nnnc1NC(=O)c1ccc(C(F)(F)F)c(CS(C)(=O)=O)c1SC [Example 2-163]	–	–	100	90%	100%	–	–	–
CCCn1nnnc1NC(=O)c1ccc(C(F)F)c(C[S+]([O-])CC)c1Cl (stereo not shown) [Example 3-324]	–	90	100	90%	100%	–	–	–
CCCn1nnnc1NC(=O)c1ccc(C(F)(F)F)c(CSCC)c1Cl [Example 3-299]	–	–	100	–	100%	90%	–	–
CCCn1nnnc1NC(=O)c1ccc(C(F)(F)F)c(CSC)c1Br [Example 3-380]	–	–	100	90%	100%	–	–	–
Cc1ccc(C(=O)Nc2nnnn2C)c(Cl)c1CS(C)(=O)=O [Example 1-289]	–	–	100	–	90%	–	–	–
C=CCSCc1c(C(F)(F)F)ccc(C(=O)Nc2nnnn2C)c1Cl [Example 1-308]	–	–	–	100%	100%	–	90%	90%
CCCn1nnnc1NC(=O)c1ccc(C(F)(F)F)c(CSC)c1Cl [Example 3-296]	–	–	100	–	100%	80%	–	–
Cn1nnnc1NC(=O)c1ccc(C(F)(F)F)c(C[S+](C)[O-])c1F (stereo not shown) [Example 1-243]	–	–	100	80%	100%	–	–	–
CCCn1nnnc1NC(=O)c1ccc(C(F)(F)F)c(C[S+](C)[O-])c1Cl (stereo not shown) [Example 3-297]	–	–	–	80%	100%	–	80%	100%
CCSCc1c(C(F)(F)F)ccc(C(=O)Nc2nnnn2C)c1C [Example 1-86]	–	–	–	80%	100%	–	80%	100%

Structure (SMILES)	herbicidal action VIOTR [1]	herbicidal action CYPES ([2]; Dosage 80 g/ha)	herbicidal action VIOTR ([3]; Dosage 80 g/ha)	herbicidal activity PHBPU [4]	herbicidal activity VIOTR [1]	herbicidal activity LOLMU [5]	herbicidal action CYPES ([2]; post-emergence, dosage 80 g/ha)	herbicidal action VIOTR ([3]; post-emergence, dosage 80 g/ha)
CCCn1nnnc1NC(=O)c1ccc(C(F)(F)F)c(C[S+](C)[O-])c1Br (stereo not shown) [Example 3-381]	–	–	–	–	100%	–	90%	100%
CCCn1nnnc1NC(=O)c1ccc(C(F)F)c(CSC)c1Cl [Example 3-320]	–	–	100	–	100%	–	–	–
CCCn1nnnc1NC(=O)c1ccc(C(F)(F)F)c(CS(=O)(=O)CC)c1Br [Example 3-385]	–	–	100	–	100%	90%	–	–
CCn1nnnc1NC(=O)c1ccc(C(F)F)c(CSC)c1C [Example 2-107]	–	–	100	–	100%	–	–	–
CCCn1nnnc1NC(=O)c1ccc(C(F)(F)F)c(CS(C)(=O)=O)c1OC [Example 3-136]	–	–	100	–	100%	–	–	–
CCCn1nnnc1NC(=O)c1ccc(C(F)(F)F)c(CS(=O)(=O)CC)c1C [Example 3-88]	–	–	100	90%	100%	–	–	–
CCS(=O)(=O)Cc1c(C(F)(F)F)ccc(C(=O)Nc2nnnn2C)c1Cl [Example 1-301]	–	–	100	100%	100%	–	–	–
CCn1nnnc1NC(=O)c1ccc(C(F)(F)F)c(CS(C)(=O)=O)c1Br [Example 2-382]	–	–	100	–	100%	80%	–	–
CCn1nnnc1NC(=O)c1ccc(C)c(CSC)c1Cl [Example 2-287]	–	–	100	–	90%	–	–	–
CSCc1c(C(F)(F)F)ccc(C(=O)Nc2nnnn2C)c1F [Example 1-242]	–	80	100	–	100%	–	–	–
CCCn1nnnc1NC(=O)c1ccc(C(F)F)c(CSC)c1C [Example 3-107]	–	–	100	–	100%	–	–	–
CCCn1nnnc1NC(=O)c1ccc(C(F)(F)F)c(CSC)c1OC [Example 3-134]	–	–	100	–	100%	–	–	–
CCSCc1c(C(F)F)ccc(C(=O)Nc2nnnn2C)c1SCC [Example 1-191]	–	–	100	–	100%	80%	–	–
CCn1nnnc1NC(=O)c1ccc(C(F)(F)F)c(CS(C)(=O)=O)c1OC [Example 2-136]	–	–	100	–	100%	–	–	–
CCn1nnnc1NC(=O)c1ccc(C(F)(F)F)c(C[S+](C)[O-])c1OC (stereo not shown) [Example 2-135]	–	–	100	–	100%	–	–	–
